Active and inactive are the calls of the source. No cut-off for these calls is given here.
Tests used:
Acinetobacter baumannii [1] = assay: Synergistic antibacterial activity against Acinetobacter baumannii ATCC BAA-1605 assessed as FICI after 24 hrs in presence of colistin by checkerboard assay; format: functional
MRC5 = assay: Cytotoxicity against human MRC5 cells assessed as reduction in cell viability at >=12.5 uM measured after 48 hrs by resazurin dye based fluorescence assay; settings: mrc5, 48 h
Klebsiella pneumoniae = assay: Synergistic antibacterial activity against Klebsiella pneumoniae ATCC 700603 assessed as FIC after 24 hrs in presence of colistin by checkerboard assay relative to test compound MIC; format: functional
Staphylococcus aureus [2] = assay: Antibacterial activity against methicillin susceptible Staphylococcus aureus ATCC 25923 at 0.78 to 100 uM after 24 hrs by broth microdilution method; format: functional, organism-based; settings: dose microM 0.78-100, time 24.0 hrs
Staphylococcus aureus [3] = assay: Antibacterial activity against methicillin-resistant Staphylococcus aureus USA300 LAC at 0.15 to 25 uM incubated for 24 hrs under low pyruvate containing medium by resazurin dye based fluorescence assay; format: functional, organism-based; settings: dose microM 0.15-25, time 24.0 hrs
Staphylococcus aureus [4] = assay: Bactericidal activity against […] Staphylococcus aureus ATCC 700699 assessed as reduction in bacterial viability at 5 fold MIC incubated for 6 hrs by time kill assay relative to control; format: functional
[5] = molecular target: Pyruvate kinase PKM (Oryctolagus cuniculus) (UniProt P11974); assay: Inhibition of rabbit muscle pyruvate kinase up to 12.5 uM using phosphoenolpyruvate as substrate measured for 5 mins by LDH-coupled assay; settings: dose microM <=12.5, time 5.0 min
Pyruvate kinase PKM (Oryctolagus cuniculus), sequence (P11974 whole entry): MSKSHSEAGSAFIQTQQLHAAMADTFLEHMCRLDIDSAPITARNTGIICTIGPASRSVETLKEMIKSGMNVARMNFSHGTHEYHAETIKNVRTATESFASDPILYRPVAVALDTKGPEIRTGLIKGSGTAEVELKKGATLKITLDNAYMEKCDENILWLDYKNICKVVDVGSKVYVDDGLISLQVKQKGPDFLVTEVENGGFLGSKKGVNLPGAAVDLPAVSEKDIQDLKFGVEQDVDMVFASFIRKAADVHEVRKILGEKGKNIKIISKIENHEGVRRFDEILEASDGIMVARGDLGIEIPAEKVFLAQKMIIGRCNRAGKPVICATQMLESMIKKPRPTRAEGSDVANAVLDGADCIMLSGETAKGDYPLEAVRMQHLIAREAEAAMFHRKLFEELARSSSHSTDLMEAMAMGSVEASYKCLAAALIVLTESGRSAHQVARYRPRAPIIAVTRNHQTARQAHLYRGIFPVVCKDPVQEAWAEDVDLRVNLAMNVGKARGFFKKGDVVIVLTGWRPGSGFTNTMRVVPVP

Staphylococcus aureus [6] = assay: Antibacterial activity against vancomycin-sensitive Staphylococcus aureus T144 infected in Balb/c mouse peritonitis-sepsis model assessed as increase in survival at 5 mg/kg, ip measured for 48 hrs; format: functional, organism-based
Acinetobacter baumannii [7] = assay: Antibacterial activity against Acinetobacter baumannii ATCC BAA-1605 at 0.78 to 100 uM after 24 hrs by broth microdilution method; format: functional, organism-based; settings: dose microM 0.78-100, time 24.0 hrs
Pseudomonas aeruginosa = assay: Antibacterial activity against Pseudomonas aeruginosa ATCC 27853 measured after 24 hrs by broth microdilution method; format: functional

In the case of `Clc1ccc2[nH]cc(-c3cccc(-c4c[nH]c5ccc(Cl)cc45)n3)c2c1`, the “fractional inhibitory concentration index (FICI)” value (Acinetobacter baumannii [1]) is reported as “<=0.3125”, the Activity (MRC5) is reported as “Toxic” and the FIC (Klebsiella pneumoniae) is reported as “<=0.125”. For the same compound, the Activity (Staphylococcus aureus [2]) was “Active”, the Activity (Staphylococcus aureus [3]) was “Active” and the “fold change (FC)” value (Staphylococcus aureus [4]) was 10000. For the same compound, the inhibition [5] was “inactive”, the Activity (Staphylococcus aureus [6]) was “Active” and the Activity (Acinetobacter baumannii [7]) was “Active”. For the same compound, the MIC (Pseudomonas aeruginosa) was greater than 100 µM.
